In patent US10577363B2, “Substituted piperidine compounds” (EPIZYME, INC., priority 2014, dated 2020):

molecular target: SMYD3 (Homo sapiens (Human), UniProt Q9H7B4); experiment: SMYD3 biochemical assay (SPA, 3H-SAM methylation of MEKK2 protein substrate); details: read-out: SMYD3 Biochem IC50 (μM)*
Outline: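 Enzyme: untagged full-length human SMYD3 from E. coli; substrate GST-tagged MEKK2 from insect cells. Buffer 25 mM Tris-Cl pH 8.0, 1 mM TCEP, 0.005% BSG/Tween 20. 30 min compound–enzyme preincubation at RT; 3H-SAM/MEKK2 start; stop with cold SAM (100 uM final); SPA readout in cpm.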

First: CC[C@@H]1CN(C(=O)CCCN)CC[C@H]1NC(=O)c1cc(C2CC2)on1 [compound 298, N-((3R,4R)-1-(4-aminobutanoyl)-3-ethylpiperidin-4-yl)-5-cyclopropylisoxazole-3-carboxamide]
Second: CC[C@H]1CN(C(=O)CCCN)CC[C@H]1NC(=O)c1cc(C2CC2)on1 [compound 299, N-((3S,4R)-1-(4-aminobutanoyl)-3-ethylpiperidin-4-yl)-5-cyclopropylisoxazole-3-carboxamide]
The IC50 of the first is 6.2-fold higher: 6.1 µM for the first, 0.989 µM for the second. The second is the more potent here.

First: CC[C@H]1CN(C(=O)CCCN)CC[C@@H]1NC(=O)c1cc(C2CC2)on1 [compound 300, N-((3S,4S)-1-(4-aminobutanoyl)-3-ethylpiperidin-4-yl)-5-cyclopropylisoxazole-3-carboxamide]
Second: NCCCC(=O)N1CCC(NC(=O)c2cc(C3CC3)on2)C(C(F)(F)F)C1 (centres unmarked) [compound 356, N-(1-(4-aminobutanoyl)-3-(trifluoromethyl)piperidin-4-yl)-5-cyclopropylisoxazole-3-carboxamide]
The IC50 of the first is 3-fold higher: 3.6 µM for the first, 1.21 µM for the second.

NCCCC(=O)N1CCC(NC(=O)c2cc(C3CC3)on2)CC12CCCCC2 (centres unmarked) [compound 301, N-(1-(4-aminobutanoyl)-1-azaspiro[5.5]undecan-4-yl)-5-cyclopropylisoxazole-3-carboxamide] and CC[C@@H]1CC(NC(=O)c2cc(C3CC3)on2)C[C@H](CC)N1C(=O)CCCN (stereo partly drawn) [compound 302, N-((2S,6R)-1-(4-aminobutanoyl)-2,6-diethylpiperidin-4-yl)-5-cyclopropylisoxazole-3-carboxamide] are within 1.5-fold of each other in IC50: 6.47 µM for the first, 6.93 µM for the second.

CC1CN(C(=O)[C@H]2CC[C@H](N)CC2)CC(C)C1NC(=O)c1cc(C2CC2)on1 (some centres unmarked) [compound 303, N-(1-((1r,4r)-4-aminocyclohexane-1-carbonyl)-3,5-dimethylpiperidin-4-yl)-5-cyclopropylisoxazole-3-carboxamide] and N[C@H]1CC[C@H](C(=O)N2CCC(NC(=O)c3cc(C4CC4)on3)C(C(F)(F)F)C2)CC1 (some centres unmarked) [compound 304, N-(1-((1r,4r)-4-aminocyclohexane-1-carbonyl)-3-(trifluoromethyl)piperidin-4-yl)-5-cyclopropylisoxazole-3-carboxamide] are within 1.5-fold of each other in IC50: 1.78 µM for the first, 2.04 µM for the second.

C[C@H](C(=O)N1CC[C@@H](NC(=O)c2cc(C3CC3)on2)C[C@H]1C)C1CCNCC1 [compound 305, 5-cyclopropyl-N-((2R,4R)-2-methyl-1-((S)-2-(piperidin-4-yl)propanoyl)piperidin-4-yl)isoxazole-3-carboxamide] and C[C@@H]1C[C@H](NC(=O)c2cc(C3CC3)on2)CCN1C(=O)[C@H](C)C1CCNCC1 [compound 306, 5-cyclopropyl-N-((2R,4R)-2-methyl-1-((R)-2-(piperidin-4-yl)propanoyl)piperidin-4-yl)isoxazole-3-carboxamide] are within 1.5-fold of each other in IC50: 1.17 µM for the first, 0.852 µM for the second.

Compared with C[C@H](C(=O)N1CC[C@H](NC(=O)c2cc(C3CC3)on2)C[C@H]1C)C1CCNCC1 [compound 307, 5-cyclopropyl-N-((2R,4S)-2-methyl-1-((S)-2-(piperidin-4-yl)propanoyl)piperidin-4-yl)isoxazole-3-carboxamide], C[C@@H]1C[C@@H](NC(=O)c2cc(C3CC3)on2)CCN1C(=O)[C@H](C)C1CCNCC1 [compound 308, 5-cyclopropyl-N-((2R,4S)-2-methyl-1-((R)-2-(piperidin-4-yl)propanoyl)piperidin-4-yl)isoxazole-3-carboxamide] is 5.2-fold lower in IC50: 0.928 µM for the first, 0.179 µM for the second.

Compared with C[C@H]1C[C@H](NC(=O)c2cc(C3CC3)on2)CCN1C(=O)CC(C)(C)CN [compound 311, N-((2S,4R)-1-(4-amino-3,3-dimethylbutanoyl)-2-methylpiperidin-4-yl)-5-cyclopropylisoxazole-3-carboxamide], C[C@@H]1C[C@H](NC(=O)c2cc(C3CC3)on2)CCN1C(=O)CC(C)(C)CN [compound 312, N-((2R,4R)-1-(4-amino-3,3-dimethylbutanoyl)-2-methylpiperidin-4-yl)-5-cyclopropylisoxazole-3-carboxamide] is 3.9-fold lower in IC50: 1.62 µM for the first, 0.416 µM for the second.

Compared with C[C@@H]1C[C@@H](NC(=O)c2cc(C3CC3)on2)CCN1C(=O)CC(CN)c1ccccc1 (stereo partly drawn) [compound 313, N-((2R,4S)-1-(4-amino-3-phenylbutanoyl)-2-methylpiperidin-4-yl)-5-cyclopropylisoxazole-3-carboxamide], C[C@H]1C[C@@H](NC(=O)c2cc(C3CC3)on2)CCN1C(=O)CC(CN)c1ccccc1 (stereo partly drawn) [compound 338, N-((2S,4S)-1-(4-amino-3-phenylbutanoyl)-2-methylpiperidin-4-yl)-5-cyclopropylisoxazole-3-carboxamide] is 6-fold lower in IC50: 5.02 µM for the first, 0.842 µM for the second.

Compared with C[C@H]1C[C@@H](NC(=O)c2cc(C3CC3)on2)CCN1S(=O)(=O)c1ccc(Cl)nc1 [compound 318, N-((2S,4S)-1-((6-chloropyridin-3-yl)sulfonyl)-2-methylpiperidin-4-yl)-5-cyclopropylisoxazole-3-carboxamide], C[C@@H]1C[C@@H](NC(=O)c2cc(C3CC3)on2)CCN1S(=O)(=O)c1ccccc1 [compound 353, 5-cyclopropyl-N-((2R,4S)-2-methyl-1-(phenylsulfonyl)piperidin-4-yl)isoxazole-3-carboxamide] is 2.1-fold higher in IC50: 1.88 µM for the first, 3.98 µM for the second. The first is the more potent here.

CCOC(=O)CS(=O)(=O)N1CC[C@H](NC(=O)c2cc(C3CC3)on2)C[C@H]1C [compound 320, ethyl 2-(((2R,4S)-4-(5-cyclopropylisoxazole-3-carboxamido)-2-methylpiperidin-1-yl)sulfonyl)acetate] and CCCS(=O)(=O)N1CC[C@@H](NC(=O)c2cc(C3CC3)on2)C[C@@H]1C [compound 322, 5-cyclopropyl-N-((2S,4R)-2-methyl-1-(propylsulfonyl)piperidin-4-yl)isoxazole-3-carboxamide] cannot be ordered by IC50: greater than 10 µM for the first, greater than 10 µM for the second.

First: C[C@@H]1C[C@@H](NC(=O)c2cc(C3CC3)on2)CCN1S(=O)(=O)c1ccccn1 [compound 321, 5-cyclopropyl-N-((2R,4S)-2-methyl-1-(pyridin-2-ylsulfonyl)piperidin-4-yl)isoxazole-3-carboxamide]
Second: C[C@H]1C[C@H](NC(=O)c2cc(C3CC3)on2)CCN1S(=O)(=O)Cc1cccnc1 [compound 325, 5-cyclopropyl-N-((2S,4R)-2-methyl-1-((pyridin-3-ylmethyl)sulfonyl)piperidin-4-yl)isoxazole-3-carboxamide]
The IC50 of the first is lower: 4.47 µM for the first, greater than 10 µM for the second.

Going from CC(C)CS(=O)(=O)N1CC[C@@H](NC(=O)c2cc(C3CC3)on2)C[C@@H]1C [compound 323, 5-cyclopropyl-N-((2S,4R)-1-(isobutylsulfonyl)-2-methylpiperidin-4-yl)isoxazole-3-carboxamide] to CCCCS(=O)(=O)N1CC[C@@H](NC(=O)c2cc(C3CC3)on2)C[C@@H]1C [compound 347, N-((2S,4R)-1-(butylsulfonyl)-2-methylpiperidin-4-yl)-5-cyclopropylisoxazole-3-carboxamide], the IC50 falls from greater than 10 µM to 8.02 µM. The second is the more potent here.

Compared with C[C@H]1C[C@H](NC(=O)c2cc(C3CC3)on2)CCN1S(=O)(=O)N1CCN(C)CC1 [compound 324, 5-cyclopropyl-N-((2S,4R)-2-methyl-1-((4-methylpiperazin-1-yl)sulfonyl)piperidin-4-yl)isoxazole-3-carboxamide], C[C@H]1C[C@H](NC(=O)c2cc(C3CC3)on2)CCN1S(=O)(=O)N(C)C [compound 346, 5-cyclopropyl-N-((2S,4R)-1-(N,N-dimethylsulfamoyl)-2-methylpiperidin-4-yl)isoxazole-3-carboxamide] is higher in IC50: 1.65 µM for the first, greater than 10 µM for the second. The first is the more potent here.

C[C@H]1C[C@H](NC(=O)c2cc(C3CC3)on2)CCN1S(=O)(=O)CCc1ccccc1 [compound 326, 5-cyclopropyl-N-((2S,4R)-2-methyl-1-(phenethylsulfonyl)piperidin-4-yl)isoxazole-3-carboxamide] and C[C@@H]1C[C@@H](NC(=O)c2cc(C3CC3)on2)CCN1S(=O)(=O)CCc1ccccc1 [compound 344, 5-cyclopropyl-N-((2R,4S)-2-methyl-1-(phenethylsulfonyl)piperidin-4-yl)isoxazole-3-carboxamide] cannot be ordered by IC50: greater than 10 µM for the first, greater than 10 µM for the second.

COCCCS(=O)(=O)N1CC[C@@H](NC(=O)c2cc(C3CC3)on2)C[C@@H]1C [compound 327, 5-cyclopropyl-N-((2S,4R)-1-((3-methoxypropyl)sulfonyl)-2-methylpiperidin-4-yl)isoxazole-3-carboxamide] and C[C@@H]1C[C@@H](NC(=O)c2cc(C3CC3)on2)CCN1S(=O)(=O)CCC(F)(F)F [compound 345, 5-cyclopropyl-N-((2R,4S)-2-methyl-1-((3,3,3-trifluoropropyl)sulfonyl)piperidin-4-yl)isoxazole-3-carboxamide] cannot be ordered by IC50: greater than 10 µM for the first, greater than 10 µM for the second.

First: CC1CN(C(=O)CCCN)CC(C)C1NC(=O)c1cc(C2CC2)on1 (centres unmarked) [compound 332, N-(1-(4-aminobutanoyl)-3,5-dimethylpiperidin-4-yl)-5-cyclopropylisoxazole-3-carboxamide]
Second: C[C@@H]1C[C@H](NC(=O)c2cc(C3CC3)on2)CCN1C(=O)C1CCCC(CN)C1 (stereo partly drawn) [compound 342, N-((2R,4R)-1-(3-(aminomethyl)cyclohexane-1-carbonyl)-2-methylpiperidin-4-yl)-5-cyclopropylisoxazole-3-carboxamide]
The IC50 of the first is 4.6-fold higher: 2.53 µM for the first, 0.552 µM for the second.

Going from C[C@H]1C[C@H](NC(=O)c2cc(C3CC3)on2)CCN1C(=O)CC(CN)c1ccccc1 (stereo partly drawn) [compound 339, N-((2S,4R)-1-(4-amino-3-phenylbutanoyl)-2-methylpiperidin-4-yl)-5-cyclopropylisoxazole-3-carboxamide] to C[C@@H]1C[C@@H](NC(=O)c2cc(C3CC3)on2)CCN1C(=O)C1CCCC(CN)C1 (stereo partly drawn) [compound 343, N-((2R,4S)-1-(3-(aminomethyl)cyclohexane-1-carbonyl)-2-methylpiperidin-4-yl)-5-cyclopropylisoxazole-3-carboxamide], the IC50 falls from 4.67 µM to 1.07 µM (4.4-fold). The second is the more potent here.

For C[C@@H]1C[C@@H](NC(=O)c2cc(C3CC3)on2)CCN1S(=O)(=O)c1cccc(C#N)c1 [compound 355, N-((2R,4S)-1-((3-cyanophenyl)sulfonyl)-2-methylpiperidin-4-yl)-5-cyclopropylisoxazole-3-carboxamide], the IC50 was 0.278 µM.
